# Data as given in the NIST ThermoML archive (doi:10.1016/j.jct.2017.09.027).
# Numbers after ± are expanded uncertainties.
# Conditions: 298.15 K; 100 kPa; Liquid; Vibrating tube method
row,Structure (SMILES),mass density [kg/m3]
1,"CC(C)CC(C)(C)C [2,2,4-trimethylpentane]",687.32 ± 1.7
2,N#CCCc1ccccc1 [3-phenylpropanenitrile],996.44 ± 2.4
3,N#CCc1ccccc1 [benzeneacetonitrile],1012.89 ± 2.6
4,C1CCCCCCC1 [cyclooctane],831.61 ± 2
5,CCCCCCC [heptane],679.71 ± 1.6
6,CCCCCCCCC [nonane],713.93 ± 1.7
7,CCCCCCCC [octane],698.71 ± 1.7
